{
  "source": "paper PMC9908924",
  "about": "“Accelerating inhibitor discovery for deubiquitinating enzymes” (Nature Communications, 2023)",
  "key": {"[1]": {"target": "T1, UCHL1 (Homo sapiens, UniProt P09936)", "T1 construct": "full length residues 1-223, N-terminal GST tag (pGEX6P1), 3C protease elution, E. coli BL21(DE3)", "T1 sequence (P09936 1-223)": "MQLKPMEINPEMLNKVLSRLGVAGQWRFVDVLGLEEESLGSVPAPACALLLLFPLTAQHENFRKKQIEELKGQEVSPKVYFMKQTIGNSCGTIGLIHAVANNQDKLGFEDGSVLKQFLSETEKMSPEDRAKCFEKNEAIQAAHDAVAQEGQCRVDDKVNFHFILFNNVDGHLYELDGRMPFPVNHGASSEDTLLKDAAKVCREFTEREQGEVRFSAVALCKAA", "experiment": "active-site cysteine modification (in-house validation)", "type": "binding", "settings": "covalent"}, "[2]": {"target": "T2, USP40 (Homo sapiens, UniProt Q9NVE5)", "T2 construct": "endogenous full-length protein in HEK293T lysate", "T2 sequence (Q9NVE5 1-1235)": "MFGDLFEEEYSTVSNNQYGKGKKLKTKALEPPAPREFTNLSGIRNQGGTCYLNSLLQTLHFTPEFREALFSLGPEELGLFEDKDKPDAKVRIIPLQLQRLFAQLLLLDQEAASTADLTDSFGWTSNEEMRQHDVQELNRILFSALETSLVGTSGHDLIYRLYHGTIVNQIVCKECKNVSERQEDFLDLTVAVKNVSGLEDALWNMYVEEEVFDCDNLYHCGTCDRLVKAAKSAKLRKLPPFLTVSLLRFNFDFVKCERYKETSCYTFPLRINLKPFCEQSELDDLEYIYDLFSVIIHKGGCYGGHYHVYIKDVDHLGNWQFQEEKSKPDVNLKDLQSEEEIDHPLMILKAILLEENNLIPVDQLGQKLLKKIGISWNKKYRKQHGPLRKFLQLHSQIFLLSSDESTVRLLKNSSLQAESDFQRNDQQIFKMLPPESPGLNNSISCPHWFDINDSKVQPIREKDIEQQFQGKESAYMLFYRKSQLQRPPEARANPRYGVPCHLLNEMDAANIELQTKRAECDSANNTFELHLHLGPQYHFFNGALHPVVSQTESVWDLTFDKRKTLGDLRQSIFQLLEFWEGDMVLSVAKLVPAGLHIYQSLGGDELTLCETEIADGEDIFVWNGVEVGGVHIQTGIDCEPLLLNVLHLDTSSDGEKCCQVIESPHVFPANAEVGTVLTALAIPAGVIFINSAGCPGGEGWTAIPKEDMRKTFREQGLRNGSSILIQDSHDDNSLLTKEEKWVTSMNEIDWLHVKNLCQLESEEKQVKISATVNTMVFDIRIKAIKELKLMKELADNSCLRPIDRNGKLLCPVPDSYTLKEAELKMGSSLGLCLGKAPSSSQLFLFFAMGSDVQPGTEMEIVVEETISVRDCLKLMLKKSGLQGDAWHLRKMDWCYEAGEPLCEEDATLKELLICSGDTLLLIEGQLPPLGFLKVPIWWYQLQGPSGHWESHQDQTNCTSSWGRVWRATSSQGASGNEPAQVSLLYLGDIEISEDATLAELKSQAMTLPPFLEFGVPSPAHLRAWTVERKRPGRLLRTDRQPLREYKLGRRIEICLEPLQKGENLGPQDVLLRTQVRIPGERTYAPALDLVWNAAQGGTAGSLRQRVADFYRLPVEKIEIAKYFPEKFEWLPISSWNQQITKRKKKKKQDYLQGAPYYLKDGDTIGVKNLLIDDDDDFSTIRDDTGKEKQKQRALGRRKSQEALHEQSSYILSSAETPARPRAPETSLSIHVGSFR", "experiment": "DUB-ABPP competition with biotin-Ub-PA / biotin-Ub-VME, TMT MS", "type": "biochemical", "settings": "chloroacetamide; 10 µM"}, "[3]": {"target": "T3, BAP1 (Homo sapiens, UniProt Q92560)", "T3 construct": "endogenous full-length protein in HEK293T lysate", "T3 sequence (Q92560 1-729)": "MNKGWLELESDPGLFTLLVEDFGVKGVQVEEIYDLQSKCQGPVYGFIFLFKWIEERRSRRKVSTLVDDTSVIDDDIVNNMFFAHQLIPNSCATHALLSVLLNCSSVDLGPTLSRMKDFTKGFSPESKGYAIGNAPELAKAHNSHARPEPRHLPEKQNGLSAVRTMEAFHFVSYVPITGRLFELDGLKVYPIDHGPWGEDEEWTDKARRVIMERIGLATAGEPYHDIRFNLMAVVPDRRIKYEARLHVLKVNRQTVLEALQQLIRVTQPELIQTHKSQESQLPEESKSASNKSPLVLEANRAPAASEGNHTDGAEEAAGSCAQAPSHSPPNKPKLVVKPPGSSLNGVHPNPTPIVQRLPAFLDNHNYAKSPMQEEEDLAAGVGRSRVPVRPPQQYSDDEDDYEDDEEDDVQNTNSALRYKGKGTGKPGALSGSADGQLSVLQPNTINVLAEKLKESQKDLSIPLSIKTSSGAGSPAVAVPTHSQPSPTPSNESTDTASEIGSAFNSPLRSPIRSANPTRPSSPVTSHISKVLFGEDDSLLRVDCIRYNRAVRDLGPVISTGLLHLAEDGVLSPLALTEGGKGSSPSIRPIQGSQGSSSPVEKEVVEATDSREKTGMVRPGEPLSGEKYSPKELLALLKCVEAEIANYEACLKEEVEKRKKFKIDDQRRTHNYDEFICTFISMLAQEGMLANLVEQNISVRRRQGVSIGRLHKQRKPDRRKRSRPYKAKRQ", "experiment": "DUB-ABPP competition with biotin-Ub-PA / biotin-Ub-VME, TMT MS", "type": "biochemical", "settings": "chloroacetamide; 50 µM"}, "[4]": {"target": "T4, VCPIP1 (Homo sapiens, UniProt Q96JH7)", "T4 construct": "endogenous full-length protein in HEK293 / HEK293T cell extract", "T4 sequence (Q96JH7 1-1222)": "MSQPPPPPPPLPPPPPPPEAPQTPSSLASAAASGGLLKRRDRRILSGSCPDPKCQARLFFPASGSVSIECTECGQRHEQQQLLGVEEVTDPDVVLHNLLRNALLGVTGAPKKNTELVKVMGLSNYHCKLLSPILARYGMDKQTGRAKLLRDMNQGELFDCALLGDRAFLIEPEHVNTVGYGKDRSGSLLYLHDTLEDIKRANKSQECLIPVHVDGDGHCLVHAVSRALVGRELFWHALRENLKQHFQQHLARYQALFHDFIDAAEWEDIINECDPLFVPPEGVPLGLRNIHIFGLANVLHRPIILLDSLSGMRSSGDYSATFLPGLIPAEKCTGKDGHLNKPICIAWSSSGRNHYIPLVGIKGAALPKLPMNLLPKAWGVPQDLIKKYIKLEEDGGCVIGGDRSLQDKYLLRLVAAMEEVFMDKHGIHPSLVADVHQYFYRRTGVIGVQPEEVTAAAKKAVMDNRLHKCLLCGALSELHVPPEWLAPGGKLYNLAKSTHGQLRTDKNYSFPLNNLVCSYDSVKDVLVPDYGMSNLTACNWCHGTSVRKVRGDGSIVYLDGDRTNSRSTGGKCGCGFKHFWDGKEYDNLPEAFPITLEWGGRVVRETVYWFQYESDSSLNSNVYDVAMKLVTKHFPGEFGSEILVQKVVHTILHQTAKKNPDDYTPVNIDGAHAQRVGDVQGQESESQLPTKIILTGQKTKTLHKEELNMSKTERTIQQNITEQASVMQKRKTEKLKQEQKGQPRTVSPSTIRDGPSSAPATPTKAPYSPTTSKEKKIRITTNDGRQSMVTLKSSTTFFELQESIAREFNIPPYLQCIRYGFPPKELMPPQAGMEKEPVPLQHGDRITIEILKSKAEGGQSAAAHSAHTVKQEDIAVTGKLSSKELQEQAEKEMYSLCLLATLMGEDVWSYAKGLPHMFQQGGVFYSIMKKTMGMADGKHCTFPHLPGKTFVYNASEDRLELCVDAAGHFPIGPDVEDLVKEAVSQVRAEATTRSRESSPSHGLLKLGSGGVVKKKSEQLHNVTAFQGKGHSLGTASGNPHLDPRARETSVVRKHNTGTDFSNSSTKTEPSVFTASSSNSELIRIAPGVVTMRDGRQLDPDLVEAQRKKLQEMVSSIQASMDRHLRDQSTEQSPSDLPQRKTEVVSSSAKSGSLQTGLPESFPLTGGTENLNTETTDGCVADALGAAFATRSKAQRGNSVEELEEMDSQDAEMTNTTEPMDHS", "experiment": "targeted cysteine chemoproteomics (PRM-LIVE)", "type": "biochemical", "settings": "covalent (catalytic cysteine); 50 µM compound in cell extract"}, "[5]": {"target": "T5, USP7 (Homo sapiens, UniProt Q93009)", "T5 construct": "endogenous full-length protein in HEK293T lysate", "T5 sequence (Q93009 whole entry)": "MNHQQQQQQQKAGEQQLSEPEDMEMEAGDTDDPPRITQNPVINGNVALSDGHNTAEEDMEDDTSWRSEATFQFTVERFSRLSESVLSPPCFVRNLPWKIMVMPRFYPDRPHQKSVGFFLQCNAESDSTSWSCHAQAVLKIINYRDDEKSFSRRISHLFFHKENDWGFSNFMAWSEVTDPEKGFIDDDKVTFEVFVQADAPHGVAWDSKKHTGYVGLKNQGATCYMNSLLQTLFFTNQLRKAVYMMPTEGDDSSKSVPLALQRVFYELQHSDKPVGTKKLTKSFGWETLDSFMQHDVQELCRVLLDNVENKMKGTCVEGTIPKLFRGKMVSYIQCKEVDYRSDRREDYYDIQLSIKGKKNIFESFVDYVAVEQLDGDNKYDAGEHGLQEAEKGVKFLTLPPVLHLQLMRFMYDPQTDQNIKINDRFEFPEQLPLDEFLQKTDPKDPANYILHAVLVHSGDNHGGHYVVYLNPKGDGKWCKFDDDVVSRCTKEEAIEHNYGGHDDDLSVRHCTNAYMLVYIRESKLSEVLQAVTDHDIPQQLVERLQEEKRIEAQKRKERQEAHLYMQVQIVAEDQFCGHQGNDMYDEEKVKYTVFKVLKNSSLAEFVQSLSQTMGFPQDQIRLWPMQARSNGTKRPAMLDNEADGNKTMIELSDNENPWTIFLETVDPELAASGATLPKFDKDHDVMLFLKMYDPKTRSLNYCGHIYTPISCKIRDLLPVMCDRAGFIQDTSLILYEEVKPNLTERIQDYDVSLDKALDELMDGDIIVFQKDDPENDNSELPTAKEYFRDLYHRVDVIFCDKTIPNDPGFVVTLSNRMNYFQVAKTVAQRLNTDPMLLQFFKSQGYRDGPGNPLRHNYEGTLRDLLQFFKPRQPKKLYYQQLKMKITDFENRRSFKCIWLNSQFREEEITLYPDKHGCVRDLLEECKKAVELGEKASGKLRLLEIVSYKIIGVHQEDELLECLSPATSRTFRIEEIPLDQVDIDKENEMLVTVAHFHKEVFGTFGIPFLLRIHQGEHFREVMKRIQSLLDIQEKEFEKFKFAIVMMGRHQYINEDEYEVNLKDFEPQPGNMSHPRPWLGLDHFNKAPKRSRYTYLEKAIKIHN", "experiment": "DUB-ABPP competition with biotin-Ub-PA / biotin-Ub-VME, TMT MS", "type": "biochemical", "settings": "covalent inhibitor"}, "[6]": {"target": "T6, USP22 (Homo sapiens, UniProt Q9UPT9)", "T6 construct": "purified enzyme", "T6 sequence (Q9UPT9 1-525)": "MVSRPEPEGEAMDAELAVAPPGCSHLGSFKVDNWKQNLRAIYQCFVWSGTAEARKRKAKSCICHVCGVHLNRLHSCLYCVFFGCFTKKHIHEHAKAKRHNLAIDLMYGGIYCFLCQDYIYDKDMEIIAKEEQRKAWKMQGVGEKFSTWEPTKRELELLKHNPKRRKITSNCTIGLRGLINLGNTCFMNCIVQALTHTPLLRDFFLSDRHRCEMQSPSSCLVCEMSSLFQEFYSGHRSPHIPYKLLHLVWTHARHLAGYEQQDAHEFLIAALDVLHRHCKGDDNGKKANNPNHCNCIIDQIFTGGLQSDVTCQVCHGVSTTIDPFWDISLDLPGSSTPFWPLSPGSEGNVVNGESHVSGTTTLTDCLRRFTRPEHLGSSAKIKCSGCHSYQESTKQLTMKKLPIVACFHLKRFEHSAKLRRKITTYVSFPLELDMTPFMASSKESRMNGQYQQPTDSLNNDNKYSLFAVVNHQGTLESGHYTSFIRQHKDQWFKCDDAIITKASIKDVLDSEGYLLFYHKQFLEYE", "parameters": "ubiquitin-rhodamine cleavage by purified DUB, fluorescence initial rate, 6 h pre-incubation with inhibitor", "settings": "n=1; inhibitor"}},
  "data": [
    {"smiles": "N#CN1CCC(C(=O)Nc2cn(Cc3ccccc3)cn2)C1", "note": "(stereo not drawn) [SB1-F-22]", "values": [
      {"measurement": "active-site cysteine modification (in-house validation)", "setting": "[1]", "result": "validated in-house to modify the active site cysteine of UCHL1"}
    ]},
    {"smiles": "COc1ccc(C(=O)NCC2CN(C(=O)CCl)C2)cc1", "note": "[V08]", "values": [
      {"measurement": "DUB-ABPP competition with biotin-Ub-PA / biotin-Ub-VME, TMT MS", "setting": "[2]", "result": "USP16 (V03), and USP40 (V08, V09)"}
    ]},
    {"smiles": "O=C(NCC1CN(C(=O)CCl)C1)c1ccccc1", "note": "[WH-9943-103C]", "values": [
      {"measurement": "DUB-ABPP competition with biotin-Ub-PA / biotin-Ub-VME, TMT MS", "setting": "[3]", "result": "hit several DUBs including VCPIP1 (WH-9943-103C), BAP1 (WH-9943-103C)"},
      {"measurement": "% target occupancy at 50 μM", "setting": "[4]", "result": "~ 78%"}
    ]},
    {"smiles": "CN1CCN(CCC(=O)Nc2ccc3c(=O)n(CC4(O)CCN(C(=O)[C@@H](CCCNC(=O)c5ccc6c(Cl)c7c(nc6c5)CCCC7)Cc5ccccc5)CC4)cnc3c2)CC1", "note": "[XL177A]", "values": [
      {"measurement": "DUB-ABPP competition with biotin-Ub-PA / biotin-Ub-VME, TMT MS", "setting": "[5]", "result": "recapitulated the DUB binding profiles expected for our selective chemotypes"}
    ]},
    {"smiles": "O=C(CCl)N1CCC(O)(CNc2ncc3ccccc3n2)CC1", "note": "[XL_10320_009A]", "values": [
      {"measurement": "IC50", "setting": "[6]", "result": 94.4, "unit": "µM"}
    ]}
  ]
}
